Experimental findings from patent US20150025074A1, “METHODS AND COMPOSITIONS FOR TREATING SOLID TUMORS AND OTHER MALIGNANCIES” (priority 2009, published 2015) are described below.

Structures are written as SMILES. Read-outs that look alike come from different tables or passages of the source.

For experiment [1], the system named is medulloblastoma cells derived from resistant Ptch+/−Hic+/− medulloblastoma tumors. Kind of experiment: ex-vivo medulloblastoma proliferation assay (48 h, 3H thymidine incorporation), resistant tumors. Format: cell-based, mouse. The note with it: for IC50: Mus musculus, Medulloblastoma cell. The method, then: (§1) The effect of mTor inhibitors (e.g., compounds such as Compound A) on the proliferation of medulloblastoma cells derived from sensitive and resistant medulloblastoma tumors was evaluated by using an “ex-vivo medulloblastoma proliferation assay. Sensitive tumors means tumors (e.g., medulloblastomas) which, due to hedgehog pathway activation, respond to treatment with a smoothened inhibitor anti-cancer regimen. Resistant tumors means formerly sensitive tumors (e.g., medulloblastomas) which, in the continuos presence of a smo inhibitor, either have regrown after shrinking due to treatment, or have reappeared after being temporarily eliminated due to treatment. Resistant tumors show a decreased sensitivity or no response to smoothened inhibition.
(§2) Using Ptch+/−Hic+/− medulloblastoma tumors freshly harvested from allografted nude mice, we have developed a short-term 48 h proliferation assay that enables us to assess the in vitro potency of Smo inhibitors. The read-out for proliferation uses incorporation of 3H thymidine. The assay reflects the in vivo sensitivity of tumor cells to Compound 1.
(§3) Table 1 summarizes the results of treating medulloblastoma cells in culture with Compound 1 (Smo inhibitor) and Compound A (mTor inhibitor), or combinations thereof. […] The potency of compound A in resistant tumors was increased in the presence of 5 and 20 uM of compound 1.

Experiment [2] deals with medulloblastoma cells derived from sensitive Ptch+/−Hic+/− medulloblastoma tumors. The experiment in a line: ex-vivo medulloblastoma proliferation assay (48 h, 3H thymidine incorporation), sensitive tumors. It is filed as cell-based. Particulars: Mus musculus, Medulloblastoma cell. The method, then: as §1, §2, §3
In experiment [3] the test system is Ptch+/−Hic+/− medulloblastoma allograft. Kind of experiment: Ptch+/−Hic+/− subcutaneous medulloblastoma allograft model. It is filed as in vivo, Harlan nu/nu mice. The note with it: po; for effect on tumor growth / tumor volume: 80 mg/kg qd Compound 1, 10 mg/kg qd Compound A, or combination, FIG. 1. The method, then:
Mouse medulloblastoma cells (1.0-5.0×10^6), dissociated directly from tumor fragments originally derived from spontaneously arising medulloblastomas in Ptch+/−Hic+/− mice, were inoculated subcutaneously into the right flank of Harlan nu/nu mice. Treatment was initiated approximately 7-10 days post implantation. […] Tumor volumes (mm3) and body weights (g) were recorded two or three times per week from all groups for analysis. Dose was body weight adjusted at time of dosing. Comparisons between treatment groups was performed using a non-parametric Kruskal-Wallis/Wilcoxon Rank Sum Test.
Tumors were calipered in two dimensions, and the volumes were calculated using the formula: (length×width2)/2, where length is the longer of the two measurements and width is the shorter one. Percent treatment/control (% T/C) values were calculated using the following formula: % T/C=100×ΔTf-i/ΔCf-i if ΔTf-i>0, % T/T0-100×ΔTf-i/T0 if ΔTf-i<0 (regression). A partial responder (PR) was defined as an animal whose tumor […] was less than 50% of the initial tumor volume by the end of the study. An animal with no palpable tumor by the end of study is defined as a complete responder (CR).
Ptch+/− mice develop medulloblastoma spontaneously (Romer, et al., Cancer Cell, Volume 6, Issue 3, pages 229-24, 2004). […] The heterozygous loss of Hic results in an earlier onset and increases the incidence rate of medulloblastomas (Briggs et al., Genes & Dev., 22: pages 770-785 2008). The in vivo efficacy of Compound 1 was evaluated in Ptch+/−Hic+/− mouse medulloblastoma allograft models, derived from corresponding transgenic mice and passaged in vivo, and following long-term continuous dosing. The following experiments were performed to evaluate if mTor inhibitors could be used either alone or in combination to treat resistant tumors or to overcome the development of resistance to Smo antagonists.
Next, a combination of Compound 1 and Compound A was explored in the Ptch+/−Hic+/− medulloblastoma allograft model.

Where [4] appears, read: Tumor type Resistant, single agent, 48 h, 3H thymidine, read-out: IC50, proliferation of medulloblastoma cells.
Setting [5] is: Tumor type Sensitive, single agent, 48 h, 3H thymidine, read-out: IC50, proliferation of medulloblastoma cells.

Consider `Cc1c(C(=O)Nc2ccc(N3C[C@@H](C)O[C@@H](C)C3)nc2)cccc1-c1ccc(OC(F)(F)F)cc1` [Compound 1, 2-Methyl-4′-trifluoromethoxy-biphenyl-3-carboxylic acid [6-(cis-2,6-dimethyl-morpholin-4-yl)-pyridin-3-yl]-amide], for which the IC50 in experiment [1] (setting [4]) was found to be 9.08 µM; in experiment [1] (resistant tumors, read-out: IC50 in resistant tumors) it was 9 µM; in experiment [2] (setting [5]) it was 8 nM; in experiment [2] (sensitive cells, read-out: IC50, inhibition of sensitive cells) it was 8 nM. Further, the “effect on tumor growth / tumor volume” value in experiment [3] was “initially induced regression but tumors started to regrow”. Moreover, in experiment [3] (80 mg/kg qd Compound 1, or combination with 10 mg/kg qd Compound A, FIG. 2), the “time to endpoint (tumor volume>700 mm3), in words” value is listed as “significantly prolonged”.
Regarding `CO[C@H]1C[C@@H]2CC[C@@H](C)[C@@](O)(O2)C(=O)C(=O)N2CCCC[C@H]2C(=O)O[C@H]([C@H](C)C[C@@H]2CC[C@@H](OCCO)[C@H](OC)C2)CC(=O)[C@H](C)/C=C(\C)[C@@H](O)[C@@H](OC)C(=O)[C@H](C)C[C@H](C)/C=C/C=C/C=C/1C` [Compound A, (1R,9S,12S,15R,16E,18R,19R,21R,23S,24E,26E,28E,30S,32S,35R)-1,18-dihydroxy-12-{(1R)-2-[(1S,3R,4R)-4-(2-hydroxyethoxy)-3-methoxycyclohexyl]-1-methylethyl}-19,30-dimethoxy-15,17,21,23,29,35-hexamethyl-11,36-dioxa-4-aza-tricyclol-[30.3.1.04.9]hexatriaconta-16,24,26,28-tetraene-2,3,10,14,20-pentaone], the figures for the IC50 in experiment [1] (setting [4]) and in experiment [2] (setting [5]) were 0.002 µM and 9 nM, respectively. The “potency of compound A in resistant tumors” value in experiment [1] (in the presence of 5 and 20 uM of compound 1) is given as “increased”. In experiment [1] (resistant compared with sensitive tumors), the “inhibition of both sensitive and resistant tumors (comparison of IC50s)” value is “inhibited both sensitive and resistant tumors with similar IC50s”. Also, the “time to endpoint (tumor volume>700 mm3)” value in experiment [3] (10 mg/kg qd Compound A, FIG. 2) is roughly 20 days. Moreover, the “effect on tumor growth / tumor volume” value in experiment [3] is “only a moderate effect on tumor growth compared to vehicle control”.
